Reference: patent publication US10328148B2, “Protein drug formulations and packages” (Purdue Research Foundation, priority 2010, dated 2019)

Experiments:
[1] = test system: human IgG; test: Screening of peptides immobilized on POROS-Aldehyde resin for binding of IgG; settings: for Affinity for IgG: immobilized peptides from proteolytic digests; for Selectivity of IgG binding: immobilized peptide, IgG from human plasma
Source text: Identifying Peptide Epitopes with Affinity for IgG. Peptide epitopes with high affinity for IgG may be derived readily from combinatorial libraries and proteolytic digests of protein mixtures. Proteolytic digests of Protein G were immobilized on POROS-Aldehyde resin by Schiff base coupling at their N-termini and the peptides screened for their ability to bind IgG from human plasma. […] In all, four peptides showing high affinity for IgG were isolated from protein G digests by this method. Similar peptides with high affinity for human IgG were also isolated and characterized from cytochrome c ([…]) (SEQ ID NO: 6) and mouse anti-human polyclonal IgG digests ([…]) (SEQ ID NO: 7) using this method. […] Without being bound by theory, it is believed herein that because ethylene glycol assists elution, some hydrophobic effects may also be involved.

[2] = test system: IgG; test: HP-SEC of IgG with free Protein A or Protein G: complex formation and agitation-induced aggregation; type: physicochemical; settings: IgG:Protein A or G ratio 1:4, RT 2 h
Method: Effect of proteins A and G on aggregation of IgG. High performance size exclusion chromatography (HP-SEC) is used to verify that IgG binds with Protein A or Protein G completely. 50 µL aliquots are injected to a Tosoh TSK G 13000 SWXL Gel 3000 column ([…]×7.8 mm) and separated at a flow rate of 0.5 mL/min. The mobile phase contains 50 mM potassium phosphate and 100 mM K2SO4 at pH 7.1. The relative percentage of IgG monomer and dimer are calculated in triplicate as a percentage of the total chromatographic peak area at 280 nm. Fresh IgG is incubated with free Protein A or free Protein G, respectively, at IgG:Protein A or G ratio of 1:4 at RT for 2 h before being subjected to agitation. […] Effect of agitation of protein A and protein G complexes of IgG. The prior Example 1 is repeated, subjecting the IgG+Protein A or IgG+Protein G to agitation on a shaker at room temperature for 44 h.

| Substance | Affinity for IgG [1] | Selectivity of IgG binding [1] | other results |
| --- | --- | --- | --- |
| CAQCHTVEK (listed as Staphylococcus aureus) [peptide isolated from cytochrome c digest] | high affinity | – | – |
| GAQGHVVEK (listed as Staphylococcus aureus) [peptide isolated from mouse anti-human polyclonal IgG digests] | high affinity | – | – |
| Protein A: free Protein A, immunoglobulin-binding protein used as polyamino acid ligand | – | – | Complex formation with IgG by HP-SEC [2]: formation of IgG-Protein A and IgG-Protein G complexes |
| TVTEKPEV (listed as Staphylococcus aureus) [peptide from proteolytic digest of Protein G] | – | comparable to Protein A | Binding constant for human IgG ([1]; by HPLC methods): ~1e+06 M⁻¹ |
| TVTEKVIDASELTPAVT (listed as Staphylococcus aureus) [peptide from proteolytic digest of Protein G] | – | comparable to Protein A | – |
